Source: patent US5830903A, “Triazole substituted quinoline derivatives for gastrointestinal treat-treatment” (Alkaloida Chemical Co., Ltd., priority 1993, dated 1998)
Where two headings read alike, the source gives them in different places. Marks after values point to notes of the source that are not given here.

What was measured:
[1] = system: alcohol induced increase of gastric glandular capillary permeability; test: Alcohol induced increase of gastric glandular capillary permeability; assay type: in vivo, rats; details: 100% ethanol alone
Protocol: After 13 minutes 1 ml of 100% ethanol was added perorally and after further 2 minutes the stomachs were removed and their weights measured. […]

[2] = system: lesions caused by intomethacin; test: Indomethacin-induced gastric lesions; assay type: in vivo, female OFA-rats; details: Rattus norvegicus, po, 6 h, read-out: ED50 mg/kg (p.o.)
Protocol: The compounds were administered in a volume of 0.5 ml/100 g in a suspension prepared in water with 2-4% Tween-80. After 6 hours the animals were over-anesthesized and their stomachs were opened along the greater curvature. The preparations were investigated by stereomicroscopy using an 8-fold enlargement. The number, size and incidence of erosions and ulcers was noted and compared with the control group treated with the carrier only.
The size of the ulcers was determined on the basis of the following score:
1: ulcer or erosion of the size of 1-2 mm;
2: ulcer or erosion of the size of 2-3 mm;
3: ulcer or erosion of the size of 3-4 mm;
4: ulcer longer than 4 mm;
5: ulcer longer and broader than 4 mm.
The ED50 values were calculated on the basis of ulcer-indexes:
ulcer index=/severeity of lesion x number of lesions/number of animals /n/

[3] = system: lesions induced with hydrochloric acid and ethanol; test: Gastric haemorrhages induced by hydrochloric acid in ethanol (cytoprotection); assay type: in vivo, female rats; details: for average length of haemmorrhages, change in %: treated vs control; for protection against hydrochloric acid/ethanol lesions (in words): 100 mg/kg
Protocol: The volume of treatment was 0.5 ml/100 g. […] The average degree of haemorrhages of the treated groups was compared to the control groups treated with the vehicle only. Number of animals was 6-18 in each group.

[4] = system: ulcers induced by reserpine; test: Reserpine induced ulcers; assay type: in vivo, female OFA rats; details: 40 mg/kg p.o.; reserpine 5 mg/kg s.c.; 18 h
Protocol: Female OFA rats of 130-160 g weight, starved for 24 hours, were treated at the same time perorally with 40 mg/kg doses of the substances to be tested and with 5 mg/kg s.c. doses of reserpine. After 18 hours the animals were over-anesthesized and the removed stomachs were investigated under stereomicroscope using a 8-fold enlargement. The number of ulcers was counted and their size was evaluated using 0-0.5-1-2-4-8-16-32 scores. The number of animals was 5 for each dose.

[5] = system: stress ulcer caused by immersion; test: Stress ulcer caused by immersion; assay type: in vivo, Wistar rats; details: for erosion inhibition % / erosion ulcus-index mm / hyperemia inhibition % / hyperemia ulcer-index mm: n = 7
Protocol: 30 minutes after peroral treatment with the test substance, […]. After seven hours the glandular lesions appearing in the stomach were evaluated according to the score described in Example I.1.

[6] = system: histamine stimulated hydrochlorid acid secretion; test: Histamine stimulated gastric acid secretion in Shay rats; assay type: in vivo; details: histamine alone 10 mg/kg s.c.
Protocol: The test substances were added on the course of operation intra-duodenally. Immediately after operation each rat obtained 0.50 ml s.c. of a physiological salt solution for hydration. After 4 hours the rats were over-anesthesized, the stomach liquid was collected, centrifugated and the volume determined. […] Measurement of stimulated secretion of gastric acid was also carried out according to the above method.

[7] = system: lesions caused by the NSAID naproxen; test: Naproxen-induced gastric erosions, test substance 1 hour after naproxen; assay type: in vivo, WISTAR rats; details: naproxen alone 75 mg/kg po., n = 7
Protocol: (§1) Administration of the test substances followed 1 hour after injection. After 4 hours the animals were over-anesthesized with ether and the changes (erosions) were evaluated as in Example I.1. The size of the lesions was characterized by way of the ulcer index.

[8] = system: lesions caused by the NSAID piroxicam; test: Piroxicam-induced gastric erosions, test substance 1 hour after piroxicam; assay type: in vivo, WISTAR rats; details: piroxicam alone 60 mg/kg po., n = 7
Protocol: as §1

[9] = 60 min before 20 mg/kg indomethacin, from ulcer index, confidence limits 95%
[10] = 20.0 mg/kg p.o., control 61.3 ± 9.8 (substance 6, n = 6), 80.4 ± 8.2 (substance 11, n = 12)

For `CCO` [100% ethanol, reference compound], the “Evans-blue” value [1] was 9.45 ± 0.94 µg/g and the “stomach” value [1] was 1.1 ± 0.15 g.

Work on `Clc1ccc2c(-n3cncn3)ccnc2c1` [Substance 2, 4-(1H-1,2,4-triazole-1-yl)-7-chloro-quinoline] yielded an ED50 [2, 9] of 53 mg/kg.

Molecule `Cc1ccc2c(-n3cncn3)ccnc2c1` [Substance 3, 4-(1H-1,2,4-triazole-1-yl)-7-methyl-quinoline] has an ED50 [2, 9] of 74 mg/kg.

`Cc1cc(-n2cncn2)c2ccccc2n1` [Substance 4, 2-methyl-4-(1H-1,2,4-triazole-1-yl)-quinoline] was tested, and the ED50 [2, 9] was 44 mg/kg.

With `c1ccc2nc(-n3cncn3)ccc2c1` [Substance 5, 2-(1H-1,2,4-triazole-1-yl)-quinoline] the ED50 [2, 9] was 38 mg/kg.

In the case of `Cc1cc2ccccc2nc1-n1cncn1` [Substance 6, 2-(1H-1,2,4-triazole-1-yl)-3-methyl-quinoline], the ED50 [2, 9] is reported as 29 mg/kg, the “average length of haemmorrhages, treated” value [3, 10] is reported as 48.0 ± 10.3 mm and the “average length of haemmorrhages, change in %” value (“average length … change in %” below) ([3]; 20.0 mg/kg p.o.) is reported as -22%. For the same molecule, the “number of ulcers, %change compared with control” value [4] was “+17%”, the “severity of ulcers, %change compared with control” value [4] was -5% and the ulcers per treated [4] was 5/5.

`Cc1cc2ccc(Br)cc2nc1-n1cncn1` [Substance 7, 2-(1H-1,2,4-triazole-1-yl)-3-methyl-7-bromo-quinoline] gave an ED50 [2, 9] of 34 mg/kg.

`CCc1ccc2cc(C)c(-n3cncn3)nc2c1` [Substance 8, 2-(1H-1,2,4-triazole-1-yl)-3-methyl-7-ethyl-quinoline] showed an ED50 [2, 9] of 40 mg/kg.

`Cc1cc(Sc2nc[nH]n2)c2ccccc2n1` [Substance 9, 2-methyl-4-(1H-1,2,4-triazole-3-yl-thio)-quinoline] was tested, and the ED50 [2, 9] was 47 mg/kg.

Molecule `CCc1nc(Sc2cc(C)nc3cc(C)cc(C)c23)n[nH]1` [Substance 10, 2,5,7-trimethyl-4-(5-ethyl-1H-1,2,4-triazole-3-yl-thio)-quinoline] has an ED50 [2, 9] of 74 mg/kg.

For `Cc1cc2ccccc2nc1Sc1nc[nH]n1` [Substance 11, 2-(1H-1,2,4-triazole-3-yl-thio)-3-methyl-quinoline], the ED50 [2, 9] was 14 mg/kg, the “average length of haemmorrhages, treated” value [3, 10] was 51.8 ± 10.0 mm and the “average length … change in %” value ([3]; 20.0 mg/kg p.o.) was -36%. The “number of ulcers, %change compared with control” value [4] was “+67%”, the “severity of ulcers, %change compared with control” value [4] was “+37%” and the ulcers per treated [4] was 5/5.

Molecule `CCc1nc(Sc2nc3ccccc3cc2C)n[nH]1` [Substance 12, 2-(5-ethyl-1H-1,2,4-triazole-3-yl-thio)-3-methyl-quinoline] has an ED50 [2, 9] of 74 mg/kg.

In the case of `CN/C(=N/CCSCc1nc[nH]c1C)NC#N` [cimetidine, reference compound], the ED50 [2] is reported as 96 mg/kg, the “protection against hydrochloric acid/ethanol lesions (in words)” value [3] is reported as “practically ineffective” and the “protection against hydrochloric acid/ethanol lesions (in words)” value ([3]; listed as Cimetidin) is reported as “practically inactive”. For the same molecule, the “average length of haemmorrhages, treated” value ([3]; 300 mg/kg p.o., n = 16, control 74.8 ± 6.4) was 64.2 ± 12.3 mm, the “average length … change in %” value ([3]; 300 mg/kg p.o.) was -24% and the erosion inhibition % ([5]; 100 mg/kg p.o.) was 34%. It also gave an erosion ulcus-index mm ([5]; 100 mg/kg p.o.) of 24.4 ± 10.0 mm, a hyperemia inhibition % ([5]; 100 mg/kg p.o.) of 21% and a hyperemia ulcer-index mm ([5]; 100 mg/kg p.o.) of 58.1 ± 10.4 mm. The erosion inhibition % ([5]; 200 mg/kg p.o.) was 50%, the erosion ulcus-index mm ([5]; 200 mg/kg p.o.) was 18.2 ± 11.2 mm and the hyperemia inhibition % ([5]; 200 mg/kg p.o.) was 39%. For the same molecule, the hyperemia ulcer-index mm ([5]; 200 mg/kg p.o.) was 48.2 ± 14.6 mm and the “inhibition of hyperemia and erosion (in words)” value ([5]; substance 1 at 50 mg/kg p.o., cimetidine) was “no significant inhibition”.

`NCCc1c[nH]cn1` [histamine, reference compound] was tested, and the “acid secretion μEqu/4^h” value [6] was 1477 ± 80 μEqu/4^h, the “acidity μEqu/ml” value [6] was 237 ± 18 μEqu/ml and the “volume/4^h” value [6] was 6.3 ± 0.7 mL.

In the case of `COc1ccc2cc([C@H](C)C(=O)O)ccc2c1` [naproxen, reference compound], the “ulcus index ± SEM” value [7] is reported as 25.2 ± 6.1.

With `CN1C(C(=O)Nc2ccccn2)=C(O)c2ccccc2S1(=O)=O` [piroxicam, reference compound] the “ulcus index ± SEM” value [8] was 23.3 ± 6.4.
